Results: patent publication US20260251642A1, “MOLECULAR TENSION SENSOR WITH NUCLEIC ACIDS AND HUH-TAGS” (REGENTS OF THE UNIVERSITY OF MINNESOTA, priority 2022, published 2026)
Values joined by “and” are separate entries in the source; they are usually repeats but may differ in a detail not shown here. Equal entries are not always repeated.

Columns and labels:
U251 and CHO-K1 cells = assay: Soluble RAD-TGT (echistatin) titration on U251 and CHO-K1 cells; format: cell-based
Procedure: FIG. 15. Soluble RAD-TGT titration highlights differences in integrin composition between cell lines. Soluble RAD-TGTs composed of the echistatin conjugated to fluorescently labeled ligand strand annealed to the non-anchor strand was added into the wells at varying concentrations ranging from […]. The total picomolar (pmol) range of oligo was from […]. Thus, the standard RAD-TGT experiment in the main text contained […] oligo assuming all oligo properly adhered, thus this is representative of experimental conditions. From this it was concluded that U251 cells internalize the soluble RAD-TGT at a greater rate than the CHO-K1 cells, […]

integrin receptors = details: cited from earlier work
integrins on U251 cells [1] = assay: cell-based or functional assay
integrins on U251 cells [2] = biological target: integrins on U251 cells
U251 cells = assay: RAD-TGT rupture and delivery, flow cytometry readout, U251 cells; format: cell-based, human; details: versus DMSO
Procedure: (§1) RAD-TGT Synthesis: TGTs were designed using previously characterized DNA sequences with a 5′ extension to allow for HUH binding. The following oligonucleotides were purchased from Integrated DNA Technologies. To prepare TGTs, anchor and ligand strands were mixed in a 1.1:1 ratio and then annealed in a 1× annealing buffer by heating at 98° C. for five minutes followed by cooling at room temperature for 1 hour. Excess bottom strand was used to mitigate any single stranded fluorescent top strand which may be internalized resulting in false positives. RAD-TGTs were then generated by reacting HUH-ligand of interest with the annealed duplex in a 2:1 ratio. […]
(§2) RAD-TGT Experimental Setup: Cells of interest were trypsinized for five minutes and transferred to Opti-MEM Reduced Serum Media. Cells were then counted using an automated cell counter. […] Cells were removed from wells and analyzed with a BD ACCURI C6 Plus Personal Flow Cytometer without further washing.
(§3) Statistical Analysis: In general, each experiment was performed on at least three separate days with 1-3 separated wells per day. […] The fluorescence data were concatenated to produce the dot plots. The medians of the normalized data for each biological replicate were used to overlay on the dot plot, and statistical significance was calculated using unpaired ANOVA as previously described.

CHO-K1 cells = assay: RAD-TGT rupture and delivery, flow cytometry readout, CHO-K1 cells; format: cell-based; details: versus DMSO
Procedure: as §1, §2, §3

## Echistatin
U251 and CHO-K1 cells
  difference in bound echistatin between U251 and CHO-K1 cells: three-to-four-fold
Integrin receptors
  affinity for a broad range of integrin receptors: sub-nanomolar

## WDV-echistatin integrin ligand (echistatin recombinantly expressed as a fusion protein with the HUH- (from UniProt P17347 131-179)
Integrins on U251 cells [1]
  increase in median fluorescence, 12 pN RAD-TGT, U251 cells, flow cytometry: 12 fold
  increase in median fluorescence, 54 pN RAD-TGT, U251 cells, flow cytometry: 7 fold
Integrins on U251 cells [2]
  fold difference in bound echistatin, U251 against CHO-K1 cells: 3 fold and 4 fold

## Cc1ccc2c(c1)C(=O)[C@]1(O)CCN(c3ccc(N)cc3)C1=N2 [Para-amino-blebbistatin, reference compound]
U251 cells; U251 on WDV-Echi RAD-TGTs, 50 μM, 30 minutes pre-incubation
  decrease in fluorescence upon treatment: ~ 30%
U251 cells; U251 on WDV-FN CY5-labeled RAD-TGTs
  effect on median fluorescence, FN ligand: reduces median fluorescence
CHO-K1 cells; CHO-K1 on WDV-Echi RAD-TGTs, 50 μM, 30 minutes pre-incubation
  decrease in fluorescence upon treatment: ~ 30%
CHO-K1 cells; CHO-K1 on WDV-FN CY5-labeled RAD-TGTs
  effect on median fluorescence, FN ligand: reduces median fluorescence
